The source of these data is patent US12053459B2, “CDK2 inhibitors and methods of using the same” (Cedilla Therapeutics, Inc., priority 2021, dated 2024).

One assay deals with CDK2/Cyclin E1(14-475) (Homo sapiens, UniProt P24941). The assay can be described thus: Caliper LabChip EZ Reader mobility shift assay, inhibition of CDK2/Cyclin E1 activity. In kind it is biochemical. Particulars: class symbols A-D. Summed up:
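CDK2/Cyclin E1(14-475) pre-incubated 30 min with compound and ATP, then reaction started with 5-FAM-QSPKKG-CONH2; final 2.5 nM enzyme, 100 μM ATP, 1.5 μM peptide, HEPES pH 7.5. Stopped with EDTA after 100 min; substrate/product conversion by capillary electrophoresis mobility shift, IC50 from four-parameter fit.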

A further assay relates to Kuramochi cells. The assay can be described thus: BrdU cell proliferation assay (colorimetric ELISA), Kuramochi cells. In kind it is cell-based. Particulars: class symbols A-D. The method in brief:
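Kuramochi cells (2,000/well, with Kuramochi RB^KO cells as a specificity control) were treated with a 4-point, 3-fold dilution series made from 10 mM compound stocks and left for 4 days at 37 °C. Proliferation was measured by 1 h BrdU labelling, then anti-BrdU peroxidase ELISA read at 450 nm. Signals were background-subtracted and normalized to DMSO wells.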
(In general: An ELISA detects its analyte on a solid surface through an enzyme-linked reagent.)

By IC50 is commonly meant the concentration that gives 50% inhibition. On to `CNC(=O)[C@H](CCCC1CCCCCC1)NC(=O)C1CN(C(=O)Cc2c[nH]c3cc(Cl)ccc23)CC2CN(C(=O)c3ccc(OC(C)C)c(OC)c3)CC21` (stereo partly shown) [I-140], for which the IC50 on CDK2/Cyclin E1(14-475) is 0.5 to 5 µM; in the assay with Kuramochi cells it was above 10 µM.
In the case of `CNC(=O)[C@@H](CCCC1CCCCCC1)NC(=O)C1CN(C(=O)Cc2c[nH]c3cc(Cl)ccc23)CC2CN(C(=O)c3ccc(OC(C)C)c(OC)c3)CC21` (stereo partly shown) [I-141], the results for the IC50 on CDK2/Cyclin E1(14-475) and with Kuramochi cells were above 10 µM and 5 to 10 µM, respectively.
Taken in the same sequence, the figures for `CNC(=O)[C@@H](CCCC1CCC(O)CC1)NC(=O)C1CN(C(=O)Cc2c[nH]c3cc(Cl)ccc23)CC2CN(C(=O)c3ccc(OC(C)C)c(OC)c3)CC21` (stereo partly shown) [I-142] were above 10 µM and above 10 µM.
Regarding `CNC(=O)[C@H](CCCc1ccc2[nH]nnc2c1)NC(=O)C1CN(C(=O)Cc2c[nH]c3cc(Cl)ccc23)CC2CN(C(=O)c3ccc(OC(C)C)c(OC)c3)CC21` (stereo partly shown) [I-143], the IC50 at CDK2/Cyclin E1(14-475) and with Kuramochi cells was above 10 µM throughout.
Regarding `CNC(=O)[C@H](CCCc1ccc(F)cc1)NC(=O)C1CN(C(=O)Cc2c[nH]c3cc(Cl)ccc23)CC2CN(C(=O)c3ccc(OC(C)C)c(OC)c3)CC21` (stereo partly shown) [I-144], the IC50 was 0.5 to 5 µM at CDK2/Cyclin E1(14-475) and above 10 µM in the assay with Kuramochi cells.
Taken in the same sequence, the figures for `COc1cc(C(=O)N2CC3CN(C(=O)Cc4c[nH]c5cc(Cl)ccc45)CC(C(=O)NC(CCCc4ccccc4)c4ncco4)C3C2)ccc1OC(C)C` (stereo not shown) [I-149] were 0.5 to 5 µM and above 10 µM.
Taken in the same sequence, the figures for `COc1cc(C(=O)N2CC3CN(C(=O)Cc4c[nH]c5cc(Cl)ccc45)CC(C(=O)NC(CCCc4ccccc4)c4ccccn4)C3C2)ccc1OC(C)C` (stereo not shown) [I-150] were 0.5 to 5 µM and 5 to 10 µM.
The corresponding values for `COc1cc(C(=O)N2CC3CN(C(=O)Cc4c[nH]c5cc(Cl)ccc45)CC(C(=O)NC(CCCc4ccccc4)c4ncccn4)C3C2)ccc1OC(C)C` (stereo not shown) [I-151] are at most 0.5 µM and 0.5 to 5 µM.
For the compound `CNC(=O)[C@H](CCCc1ccccc1)NC(=O)C1CN(C(=O)Cc2ccccc2)CC2CN(C(=O)c3ccc(OC(C)C)c(OC)c3)CC21` (stereo partly drawn) [I-154, 2-(4-isopropoxy-3-methoxybenzoyl)-N—((S)-1-(methylamino)-1-oxo-5-phenylpentan-2-yl)-5-(2-phenylacetyl)octahydro-1H-pyrrolo[3,4-c]pyridine-7-carboxamide], the IC50 at CDK2/Cyclin E1(14-475) and with Kuramochi cells was above 10 µM each time.
Regarding `CNC(=O)[C@H](CCCc1ccccc1)NC(=O)C1CN(C(=O)Cc2ccccn2)CC2CN(C(=O)c3ccc(OC(C)C)c(OC)c3)CC21` (stereo partly shown) [I-155], the half-maximal inhibitory concentration (IC50) at CDK2/Cyclin E1(14-475) and with Kuramochi cells was above 10 µM throughout.
On to `CNC(=O)[C@H](CCCc1ccccc1)NC(=O)C1CN(C(=O)Cn2cnc3cc(Cl)ccc32)CC2CN(C(=O)c3ccc(OC(C)C)c(OC)c3)CC21` (stereo partly shown) [I-156], for which the IC50 at CDK2/Cyclin E1(14-475) was 0.5 to 5 µM; with Kuramochi cells it was above 10 µM.
Taken in the same sequence, the figures for `CNC(=O)[C@H](CCCc1ccccc1)NC(=O)C1CN(C(=O)CCc2c[nH]c3ccccc23)CC2CN(C(=O)c3ccc(OC(C)C)c(OC)c3)CC21` (stereo partly shown) [I-157] were above 10 µM and above 10 µM.
The corresponding values for `CNC(=O)[C@H](CCCc1ccccc1)NC(=O)C1CN(C(=O)c2ccc3ncccc3c2)CC2CN(C(=O)c3ccc(OC(C)C)c(OC)c3)CC21` (stereo partly shown) [I-158] are above 10 µM and above 10 µM.
The corresponding values for `CNC(=O)[C@H](CCCc1ccccc1)NC(=O)C1CN(C(=O)c2cn(C)c3ccccc23)CC2CN(C(=O)c3ccc(OC(C)C)c(OC)c3)CC21` (stereo partly shown) [I-159] are above 10 µM and above 10 µM.
For `CNC(=O)[C@H](CCCc1ccccc1)NC(=O)C1CN(C(=O)c2cc3ccccc3cn2)CC2CN(C(=O)c3ccc(OC(C)C)c(OC)c3)CC21` (stereo partly shown) [I-160], the IC50 on CDK2/Cyclin E1(14-475) and in the assay with Kuramochi cells was above 10 µM each time.
`CNC(=O)[C@H](CCCc1ccccc1)NC(=O)C1CN(C(=O)Cn2ccc3ccccc32)CC2CN(C(=O)c3ccc(OC(C)C)c(OC)c3)CC21` (stereo partly shown) [I-161]: the IC50 at CDK2/Cyclin E1(14-475) and with Kuramochi cells was above 10 µM throughout.
`CNC(=O)[C@H](CCCc1ccccc1)NC(=O)C1CN(C(=O)c2cc3cc(C)ccc3[nH]2)CC2CN(C(=O)c3ccc(OC(C)C)c(OC)c3)CC21` (stereo partly shown) [I-162]: the IC50 at CDK2/Cyclin E1(14-475) and in the assay with Kuramochi cells was above 10 µM throughout.
As for `CNC(=O)[C@H](CCCc1ccccc1)NC(=O)C1CN(C(=O)c2cnc(OC)cn2)CC2CN(C(=O)c3ccc(OC(C)C)c(OC)c3)CC21` (stereo partly shown) [I-163], the IC50 at CDK2/Cyclin E1(14-475) and in the assay on Kuramochi cells was above 10 µM throughout.
Turning to `CNC(=O)[C@H](CCCc1ccccc1)NC(=O)C1CN(C(=O)CCc2ccccn2)CC2CN(C(=O)c3ccc(OC(C)C)c(OC)c3)CC21` (stereo partly shown) [I-164], the IC50 at CDK2/Cyclin E1(14-475) and in the assay on Kuramochi cells was above 10 µM in each case.
Consider `CNC(=O)[C@H](CCCc1ccccc1)NC(=O)C1CN(C(=O)c2ccc3nccnc3c2)CC2CN(C(=O)c3ccc(OC(C)C)c(OC)c3)CC21` (stereo partly shown) [I-165], for which the IC50 on CDK2/Cyclin E1(14-475) and in the assay on Kuramochi cells was above 10 µM in each case.
Take `CNC(=O)[C@H](CCCc1ccccc1)NC(=O)C1CN(C(=O)c2coc(C)n2)CC2CN(C(=O)c3ccc(OC(C)C)c(OC)c3)CC21` (stereo partly shown) [I-166]: the IC50 on CDK2/Cyclin E1(14-475) and in the assay with Kuramochi cells was above 10 µM each time.
For the compound `CNC(=O)[C@H](CCCc1ccccc1)NC(=O)C1CN(C(=O)Cc2ccc3ncccc3c2)CC2CN(C(=O)c3ccc(OC(C)C)c(OC)c3)CC21` (stereo partly shown) [I-167], the concentration for half-maximal inhibition (IC50) at CDK2/Cyclin E1(14-475) and in the assay on Kuramochi cells was above 10 µM throughout.
On to `CNC(=O)[C@H](CCCc1ccccc1)NC(=O)C1CN(C(=O)c2cc(-c3ccccc3)n[nH]2)CC2CN(C(=O)c3ccc(OC(C)C)c(OC)c3)CC21` (stereo partly shown) [I-168], for which the IC50 at CDK2/Cyclin E1(14-475) and in the assay with Kuramochi cells was above 10 µM in each case.
With `CNC(=O)[C@H](CCCc1ccccc1)NC(=O)C1CN(C(=O)C2(C)CCOCC2)CC2CN(C(=O)c3ccc(OC(C)C)c(OC)c3)CC21` (stereo partly shown) [I-169], the IC50 at CDK2/Cyclin E1(14-475) and with Kuramochi cells was above 10 µM in each case.
As to `CNC(=O)[C@H](CCCc1ccccc1)NC(=O)C1CN(C(=O)c2cc3cccc(C)c3[nH]2)CC2CN(C(=O)c3ccc(OC(C)C)c(OC)c3)CC21` (stereo partly shown) [I-170], the IC50 at CDK2/Cyclin E1(14-475) and in the assay with Kuramochi cells was above 10 µM each time.
As for `CNC(=O)[C@H](CCCc1ccccc1)NC(=O)C1CN(C(=O)c2[nH]ccc2C)CC2CN(C(=O)c3ccc(OC(C)C)c(OC)c3)CC21` (stereo partly shown) [I-171], the IC50 at CDK2/Cyclin E1(14-475) and in the assay with Kuramochi cells was above 10 µM in each case.
As for `CNC(=O)[C@H](CCCc1ccccc1)NC(=O)C1CN(C(=O)c2c[nH]c3cc(Cl)ccc23)CC2CN(C(=O)c3ccc(OC(C)C)c(OC)c3)CC21` (stereo partly shown) [I-172], the IC50 on CDK2/Cyclin E1(14-475) and in the assay on Kuramochi cells was above 10 µM in each case.
As for `CNC(=O)[C@H](CCCc1ccccc1)NC(=O)C1CN(C(=O)Cc2c[nH]c3ccc(F)cc23)CC2CN(C(=O)c3ccc(OC(C)C)c(OC)c3)CC21` (stereo partly shown) [I-173], the results for the IC50 on CDK2/Cyclin E1(14-475) and in the assay with Kuramochi cells were 0.5 to 5 µM and above 10 µM, respectively.
Taken in the same sequence, the figures for `CNC(=O)[C@H](CCCc1ccccc1)NC(=O)C1CN(C(=O)Cc2c[nH]c3cc(F)ccc23)CC2CN(C(=O)c3ccc(OC(C)C)c(OC)c3)CC21` (stereo partly shown) [I-174] were 0.5 to 5 µM and above 10 µM.
The corresponding values for `CNC(=O)[C@H](CCCc1ccccc1)NC(=O)C1CN(C(=O)Cc2c[nH]c3c(C)cccc23)CC2CN(C(=O)c3ccc(OC(C)C)c(OC)c3)CC21` (stereo partly shown) [I-175] are above 10 µM and above 10 µM.
For `CNC(=O)[C@H](CCCc1ccccc1)NC(=O)C1CN(C(=O)Cc2c[nH]c3cccc(OC)c23)CC2CN(C(=O)c3ccc(OC(C)C)c(OC)c3)CC21` (stereo partly shown) [I-176], the IC50 on CDK2/Cyclin E1(14-475) and in the assay on Kuramochi cells was above 10 µM in each case.
In the case of `CNC(=O)[C@H](CCCc1ccccc1)NC(=O)C1CN(C(=O)C(C)(C)c2c[nH]c3ccccc23)CC2CN(C(=O)c3ccc(OC(C)C)c(OC)c3)CC21` (stereo partly shown) [I-177], the IC50 on CDK2/Cyclin E1(14-475) and in the assay on Kuramochi cells was above 10 µM throughout.
As for `CNC(=O)[C@H](CCCc1ccccc1)NC(=O)C1CN(C(=O)Cc2cccc3[nH]ccc23)CC2CN(C(=O)c3ccc(OC(C)C)c(OC)c3)CC21` (stereo partly shown) [I-178], the IC50 at CDK2/Cyclin E1(14-475) and in the assay with Kuramochi cells was above 10 µM throughout.
In the case of `CNC(=O)[C@H](CCCc1ccccc1)NC(=O)C1CN(C(=O)Cc2c[nH]c3ncccc23)CC2CN(C(=O)c3ccc(OC(C)C)c(OC)c3)CC21` (stereo partly shown) [I-179], the IC50 on CDK2/Cyclin E1(14-475) and in the assay with Kuramochi cells was above 10 µM in each case.
For `CNC(=O)[C@H](CCCc1ccccc1)NC(=O)C1CN(C(=O)c2cccc3[nH]ccc23)CC2CN(C(=O)c3ccc(OC(C)C)c(OC)c3)CC21` (stereo partly shown) [I-180], the IC50 at CDK2/Cyclin E1(14-475) and in the assay with Kuramochi cells was above 10 µM each time.
For the compound `CNC(=O)[C@H](CCCc1ccccc1)NC(=O)C1CN(C(=O)c2cnc3ccccc3c2)CC2CN(C(=O)c3ccc(OC(C)C)c(OC)c3)CC21` (stereo partly shown) [I-181], the IC50 at CDK2/Cyclin E1(14-475) and with Kuramochi cells was above 10 µM each time.
As to `CNC(=O)[C@H](CCCc1ccccc1)NC(=O)C1CN(C(=O)c2n[nH]c3ccccc23)CC2CN(C(=O)c3ccc(OC(C)C)c(OC)c3)CC21` (stereo partly shown) [I-182], the IC50 at CDK2/Cyclin E1(14-475) and in the assay with Kuramochi cells was above 10 µM throughout.
Take `CNC(=O)[C@H](CCCc1ccccc1)NC(=O)C1CN(C(=O)c2cc(C)[nH]n2)CC2CN(C(=O)c3ccc(OC(C)C)c(OC)c3)CC21` (stereo partly shown) [I-183]: the IC50 on CDK2/Cyclin E1(14-475) and in the assay on Kuramochi cells was above 10 µM each time.
On to `CNC(=O)[C@H](CCCc1ccccc1)NC(=O)C1CN(C(=O)c2ccc(C)cn2)CC2CN(C(=O)c3ccc(OC(C)C)c(OC)c3)CC21` (stereo partly shown) [I-184], for which the IC50 on CDK2/Cyclin E1(14-475) and in the assay with Kuramochi cells was above 10 µM each time.
`CNC(=O)[C@H](CCCc1ccccc1)NC(=O)C1CN(C(=O)c2sc(C)nc2C)CC2CN(C(=O)c3ccc(OC(C)C)c(OC)c3)CC21` (stereo partly shown) [I-185]: the IC50 on CDK2/Cyclin E1(14-475) and in the assay with Kuramochi cells was above 10 µM in each case.
Turning to `CNC(=O)[C@H](CCCc1ccccc1)NC(=O)C1CN(C(=O)Cc2nnn[nH]2)CC2CN(C(=O)c3ccc(OC(C)C)c(OC)c3)CC21` (stereo partly shown) [I-186], the IC50 on CDK2/Cyclin E1(14-475) and in the assay on Kuramochi cells was above 10 µM throughout.
